Data on one substance can be found in US12472226B2, “Cell-permeable peptide” (priority 2019, dated 2025).

Non-standard residues stand in square brackets, D forms with d. No end group written: not given here. *: point of attachment. FITC = O=C1OC2(c3ccc(O)cc3Oc3cc(O)ccc32)c2ccc(NC(=S)*)cc21; Ahx = NCCCCCC(=O)O

For one assay, the system named is HT-1080 cells. Kind of assay: Test of inducing cell-death in vitro (Calcein-AM/PI dead cell rate). The class given is cell-based, human. The conditions noted are these: for increase in the dead cell rate: day 21. From the text: (§1) Human fibrosarcoma-derived HT-1080 cells (HT-1080 cells, JCRB cell bank) were used as cancer cells in the test for monitoring changes in mitochondrial membrane potential. HT-1080 cells, human osteosarcoma cell line Hos cells (Hos cells, JCRB cell bank), human histiocytic lymphoma/macrophage U937 cells (U937 cells, JCRB cell bank), human myeloid leukemia HL-60 cells (HL-60 cells, JCRB cell bank), acute monocytic leukemia THP-1 cells (THP-1 cells, JCRB cell bank), human alveolar basal epithelial adenocarcinoma cell A549 cells (A549 cells, Cell Resource Center for Biomedical Research, Institute of Development, Aging and Cancer, Tohoku University), human pancreatic carcinoma cells (MIA Paca 2 cells, Cell Resource Center for Biomedical Research, Institute of Development, Aging and Cancer, Tohoku University) and well differentiated human liver carcinoma-derived cell line HuH7 cells (HuH7 cells, Cell Resource Center for Biomedical Research, Institute of Development, Aging and Cancer, Tohoku University) were used as cancer cells in an in vitro cell-death induction test of cancer cells and a nuclear transport test of Example 2. Normal human gingival fibroblast cells Gin-1 (Gin-1 cells, DS Pharma Biomedical) were used as a control. The above-described cells were each inoculated into a 96-well culture plate (Falcon) at 5,000 cells/[…] and subjected to the following tests.
(§2) The peptide of SEQ ID NO: 1 labeled with FITC (Example 2) was used for the test of inducing cell-death in vitro in cancer cells. It was prepared the test example to which 100 μL of Example 2 and further 10% FBS were added and cultured for 9 days under conditions of 200 μL of serum-supplemented medium (Alpha modification of Eagle's MEM (α-MEM) (Thermo Fisher Scientific)+10% FBS). Furthermore, it was also produced the test example that was cultured for 21 days with the whole amount of Example 2-supplemented medium replaced every 7 days. As a control, the cells were cultured in a serum-supplemented medium (α-MEM+10% FBS) without addition and were used. A supernatant was removed after the completion of the culture. The cells were washed once with PBS and stained in PBS to which a fluorescent dye for living cell staining Calcein-AM (DOJINDO LABORATORIES) (final concentration: 0.1 μg/mL) and a fluorescent dye for dead cell staining Propidium Iodide (PI) (DOJINDO LABORATORIES) (final concentration: 0.3 μg/mL) were added, at 37° C. in a 5% CO2 cell incubator for 30 minutes. The living cells and dead cells were separately stained with Calcein-AM and PI, respectively and imaged with the confocal laser scanning microscope LSM800. Next, the dead cell rate relative to the number of total cells was analyzed using ImageJ.
The results are represented by the average value of the dead cell rate (the number red cells stained with IP/the number of total cells×100(%))±standard deviation (SD). In FIG. 2A, the vertical axis represents the rate of cell death when each cell was cultured with Example 2 (50 μg/mL) for 9 days and the horizontal axis represents various types of cells. The increase in the dead cell rate of the Gin-1 cells was not observed.
The concentrations of Examples 2 and 4 to 6 were adjusted to 12.5, 25, 50 and 100 μg/mL, respectively and then administrated to the HT-1080 cells for 9 days tested by the same method as in Test Example 2A. The cell staining and subsequent analyses of the dead cell rate relative to the number of total cells were performed in the same manner as Test Example 2A.

A further assay relates to A549 cells. Described as above. The class given is cell-based, human. Particulars: for dead cell rate: 50 μg/mL.
Description: as §1, §2
(§3) The amount of administration of Example 2 was adjusted to 50 μg/mL and was used for 9-, 16- or 23-day administration test in the A549, MIA Paca2 or HuH7 cells by the same method as in Test Example 2A above. The cell staining and subsequent analyses of the dead cell rate relative to the number of total cells were performed in the same manner as Test Example 2A above.

A further assay deals with HuH7 cells. The description is as above. The class given is cell-based, human.
Description: as §1, §2, §3

In the next assay the test system is MIA Paca2 cells. Described as above. It is filed as cell-based, human. Particulars: for dead cell rate: 50 μg/mL.
Description: as §1, §2, §3

The target of a further assay is T1, CD13 (Homo sapiens, UniProt P15144).
T1 construct: endogenous in cells; host or cells: HT-1080 cells
Description: Analytical test of binding protein by immunoprecipitation. The conditions noted are these: HT-1080 cells, 80 μg/400 μL, 4° C., 2 hours. The procedure:
Example 2 (80 μg/400 μL) reacted to HT-1080 cells (40 million cells) at 4° C. for 2 hours. The cells were then washed with PBS, and centrifuged. The centrifuged cells were dissolved in 1,000 μL of IP Lysis/Wash buffer (Thermo Fisher Scientific) with Halt Protease & Phosphatase inhibitor Single-Use Cocktail, ETDA-Free (Thermo Fisher Scientific) (10 μL) at 4° C. for 5 minutes. It was centrifuged at 4° C. for 10 minutes and the supernatant was collected. The supernatant was adjusted to be 1 mg in amount of protein and 80 μL of A/G agarose was added to it. The mixture was stirred at 4° C. for 1 hour and then centrifuged for 1 minute. Thus, a pre-treatment solution was obtained. 10 μg of IgG Fraction Monoclonal Mouse Anti-Fluorescein (FITC) (Jackson ImmunoResearch) or 10 μg of Mouse IgG Isotype Control (Thermo Fisher Scientific) was each added to the pre-treatment solution (1 mg/600 μL), and the mixtures were shaken at 4° C. overnight. Subsequently, 20 μL of A/G agarose was added and the mixtures were shaken at 4° C. for 2 hours. The mixtures were washed three times with the wash buffer described above and 20 μL of 2×Non-reducing Lane Marker Sample Buffer (Thermo Fisher Scientific) was added to the A/G agaroses. […]
The 10% solution used in immunoprecipitation was loaded to the left lane of FIG. 3. […] CD13 was not detected on the right lane, but CD 13 was detected on the center lane.

T1 sequence (P15144 whole entry): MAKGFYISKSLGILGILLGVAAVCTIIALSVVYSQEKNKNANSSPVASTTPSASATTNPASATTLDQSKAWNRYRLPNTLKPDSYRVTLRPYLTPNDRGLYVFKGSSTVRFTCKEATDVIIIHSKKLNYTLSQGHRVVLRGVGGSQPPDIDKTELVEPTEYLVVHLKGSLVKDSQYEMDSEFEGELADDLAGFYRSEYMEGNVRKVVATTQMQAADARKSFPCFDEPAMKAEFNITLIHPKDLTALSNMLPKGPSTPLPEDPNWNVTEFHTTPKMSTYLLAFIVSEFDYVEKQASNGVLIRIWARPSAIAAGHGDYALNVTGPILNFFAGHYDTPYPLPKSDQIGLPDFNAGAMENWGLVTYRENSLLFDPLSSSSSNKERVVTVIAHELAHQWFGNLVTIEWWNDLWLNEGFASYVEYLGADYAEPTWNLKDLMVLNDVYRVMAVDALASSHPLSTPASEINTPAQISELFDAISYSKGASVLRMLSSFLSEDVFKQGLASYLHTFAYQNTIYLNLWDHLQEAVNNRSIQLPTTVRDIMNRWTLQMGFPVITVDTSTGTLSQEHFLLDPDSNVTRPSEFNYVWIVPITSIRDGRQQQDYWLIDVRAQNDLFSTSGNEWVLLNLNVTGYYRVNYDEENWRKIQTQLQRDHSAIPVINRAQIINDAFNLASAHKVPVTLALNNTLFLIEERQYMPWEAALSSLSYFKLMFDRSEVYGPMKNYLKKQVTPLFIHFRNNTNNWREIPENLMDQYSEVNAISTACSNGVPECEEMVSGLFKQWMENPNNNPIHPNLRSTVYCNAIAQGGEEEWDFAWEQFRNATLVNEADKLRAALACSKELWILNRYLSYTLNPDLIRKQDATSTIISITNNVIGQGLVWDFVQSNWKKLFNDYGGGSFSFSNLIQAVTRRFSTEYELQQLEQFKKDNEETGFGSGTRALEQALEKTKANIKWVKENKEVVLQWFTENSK

As for “Example 2: peptide of SEQ ID NO: 1 labeled with FITC, bound via an Ahx linker at the N-terminus ({FITC}-[Ahx]KDNRGNLLQCVCTGNGRGEWKC; cysteine pairing not given here)”, the “increase in the dead cell rate” value in the assay on HT-1080 cells (6.25 μg/mL) is recorded as not below 75%; in the assay on HT-1080 cells (12.5 μg/mL), not below 75%; in the assay with HT-1080 cells (25 μg/mL), not below 95%; in the assay with HT-1080 cells (50 μg/mL), not below 95%; in the assay on HT-1080 cells (100 μg/mL) it was not below 95%. In addition, the “increase in the dead cell rate vs control” value in the assay on HT-1080 cells (50 μg/mL, 9 days) is given as “significant difference at the level of 1%”; with A549 cells (50 μg/mL, 9, 16 or 23 days) it was “significant difference was recognized at the level of 1%”; in the assay with HuH7 cells (50 μg/mL, 9, 16 or 23 days) it was “significant difference was recognized at the level of 1%”; in the assay with MIA Paca2 cells (50 μg/mL, 9, 16 or 23 days), “significant difference was recognized at the level of 1%”. Moreover, the dead cell rate in the assay with A549 cells (day 9) is approximately 50%; in the assay with A549 cells (day 16), approximately 60%; in the assay with A549 cells (day 21), not below 80%; with MIA Paca2 cells (day 9) it was “about 10%”; with MIA Paca2 cells (day 16), approximately 50%; in the assay with MIA Paca2 cells (day 23) it was “about 80%”. Moreover, the “effect of administration (dead cell rate) on day 9 compared with later days” value in the assay with HuH7 cells (50 μg/mL) is “substantially same as that of days 16 and 23”. The “binding to CD13 (co-immunoprecipitation with anti-FITC, Western blotting)” value in the assay with CD13 was “proved to bind to CD13 on a cell membrane specifically”.
